# Patent publication US20110195128A1, “TREATING OR PREVENTING GOUT” (priority 2008, published 2011)
# Assays:
# [1] = cited from earlier work
# urate peritonitis model = experiment: Murine urate peritonitis model, total cellular influx; type: in vivo, CD1 mice; settings: mice fed for a week before i.p. 3 mg MSU crystals; lavage after four hours; GMP 0.05-0.5 g per kg in drinking water; G600 precursor 12.5-100% of total fat in diet
# Description: Adult male CD1 mice (Vernon Jansen Unit, University of Auckland) were housed in conventional facilities with temperature control and 12 hour light/dark cycles. All protocols involving live animals were subjected to ethical review and a range of welfare score sheets and action plans were used to monitor and minimize the impact of the study on the animals. Mice were fed milk extracts for a week prior to induction of peritonitis. At least eight mice were used for each experimental condition. GMP was dissolved in drinking water at 0.05, 0.1, 0.25 and 0.5 g per kg mouse. The G600™ milk fat extract precursor (Batch 2, freeze dried, no added lactose) was incorporated into rodent chow at 12.5, 25, 50 and 100% of total fat in diet.
# The murine urate peritonitis protocol was based on the model described by Getting et al (1997). Adult male CD1 mice weighing 22-28 g were selected for the urate peritonitis model. Mice were anaesthetized using urethane. Peritonitis was induced by intraperitoneal injection of 3 mg MSU crystals resuspended in 250 μl PBS. The body temperature of anaesthetized mice was monitored and maintained at 37° C. using a heat pad, and hydration was maintained by subcutaneous injection of 0.9% NaCl (Normal Saline) at a volume of […] body weight two hours after initial treatments and every hour thereafter. […]
# IL-8 = experiment: THP-1 cell assay analysed by ELISA, MSU crystal-stimulated IL-8 release; type: cell-based; settings: THP-1 cells, PMA, 4 h pre-incubation, MSU crystals 0.5 mg/mL, supernatant after 16 h; highest concentration of test substance; mean of at least three experiments; * p<0.05 vs vehicle
# Description: (§1) THP-1 cells were cultured in RPMI with 10% FCS, penicillin, streptomycin, glutamine and pyruvate. At day −1, 1.5×10^6 THP-1 cells were plated in 24 well plates. These cells were cultured in the presence or absence of 5 μM phorbol 12-myristate 13-acetate (PMA) for three hours. PMA is required for NALP-3 inflammasome activation and IL-1β production in response to MSU crystals. On day 0, medium was replaced in all wells. Cells were then pre-incubated with vehicle control, test substance at three concentrations, or diclofenac control (10 μg/ml) for 4 hours. MSU crystals were then added (0.5 mg/mL) Supernatants were harvested for ELISA after 16 hours. ELISA was conducted to determine inhibition of IL-1β expression. It has been reported that this cytokine is a pivotal regulator of the inflammatory response to MSU crystals (Chen et al 2006 and Martinon et al 2006). Inhibition of IL-8 expression was also determined.
# (§2) A mean change in cytokine expression from cells treated with control vehicle pooled data from all experiments (10 μg/ml). Values represent mean (standard error) from at least three experiments in which cytokine release from wells treated with the highest concentration of milk extract has been normalized to vehicle treated wells.
# (§3) The results are shown in Table 2 below and in FIGS. 1 and 2. Table 3 contrasts the result for GMP when the MSU was replaced with a different antigen, LPS. […]
# IL-1β gene expression = experiment: THP-1 cell assay analysed by RT-PCR, IL-1β gene expression; type: cell-based; settings: THP-1 cells, treatment as in Example 1 (FIG. 5)
# Description: THP-1 assays were used to study IL-1β and IL-8 gene expression by RT-PCR, using the same treatment protocols as described for the THP-1 ELISA assay in Example 1 above and the RT-PCR protocol described in Dalbeth et al, 2008.
# IL-1β [2] = experiment: THP-1 cell assay analysed by ELISA, MSU replaced with LPS, IL-1β production; type: cell-based; settings: THP-1 cells, normalized to vehicle
# Description: as §1
# The results are shown in Table 2 below and in FIGS. 1 and 2. Table 3 contrasts the result for GMP when the MSU was replaced with a different antigen, LPS. The casein hydrolysate tested was produced by extensively hydrolysing casein (to a degree of hydrolysis of 33%) using the enzymes pancreatin and corolase. […]
# IL-1β [3] = experiment: THP-1 cell assay analysed by ELISA, MSU crystal-stimulated IL-1β release; type: cell-based; settings: THP-1 cells
# Description: as §1, §2, §3
Compound,"adverse effects ([1]; all patients, within 24 hours of taking this medication)","reduction in pain in joints ([1]; gout patients, within 48 hours)",total cellular influx in the urate peritonitis model (urate peritonitis model),IL-8 (cytokine release normalized to vehicle treated wells) (IL-8),IL-1β gene expression (IL-1β gene expression),LPS-stimulated IL-1β production (IL-1β [2]),"IL-1β (cytokine release normalized to vehicle treated wells) (IL-1β [3]; PMA, 4 h pre-incubation, MSU crystals 0.5 mg/mL, supernatant after 16 h, highest concentration of test substance, mean of at least three experiments, * p<0.05 vs vehicle)","MSU crystal-stimulated IL-1β production (IL-1β [3]; normalized to vehicle, * p<0.05)"
"COc1cc2c(c(OC)c1OC)-c1ccc(OC)c(=O)cc1[C@@H](NC(C)=O)CC2 [colchicine, Colchicine]",developed diarrhoea and/or vomiting,50%,,,,,,
Glycomacropeptide [GMP],,,significant inhibition,1.22,inhibits,0.94,0.72*,0.72*
